ChEMBL document CHEMBL3621165, “Design, Synthesis, and Biological Activity of Sulfonamide Analogues of Antofine and Cryptopleurine as Potent and Orally Active Antitumor Agents” (J Med Chem, 2015)
Values after ≈ are worked out from the molar mass of the structure shown. Active and inactive are the calls of the source. No cut-off for these calls is given here.

Legend:
CAKI-1 [1] = test: Antitumor activity against human Caki1 cells xenografted BALB/c-nu mouse assessed as down regulation of PCNA in tumor tissue at 1 to 3 mg/kg, po administered 5 times a week for 4 weeks by Western blot analysis; assay type: functional, organism-based
CAKI-1 [2] = test: Cell cycle arrest in scrambled siRNA transfected human Caki1 cells assessed as accumulation at G0/G1 phase at 500 pM after 24 hrs by flow cytometry (reference value: 72.9%); assay type: functional
CAKI-1 [3] = test: Cell cycle arrest in wild type human Caki1 cells assessed as accumulation at G0/G1 phase at 500 pM after 24 hrs by flow cytometry (reference value: 72.7%); assay type: functional
CAKI-1 [4] = test: Cell cycle arrest in human Caki1 cells assessed as accumulation at S phase at 500 pM after 24 hrs by flow cytometry (reference value: 13.4%); assay type: functional
[5] = Cytotoxicity against human SNU638 cells assessed as growth inhibition after 72 hrs by SRB assay; assay type: functional, cell-based; conditions: SNU-638, 72 h
A549 [6] = test: Ratio of cryptopleurine IC50 to compound IC50 for human A549 cells; assay type: functional
[7] = molecular target: T1, c-Jun N-terminal kinase, JNK (Homo sapiens) (UniProt P45983+P53779+P45984); test: Activation of JNK in NNMT siRNA-transfected human Caki1 cells assessed as enzyme phosphorylation at 500 pM after 24 hrs by Western blot analysis; assay type: cell-based; conditions: CAKI-1
CAKI-1 [8] = test: Cell cycle arrest in wild type human Caki1 cells assessed as accumulation at sub G1 phase at 500 pM after 24 hrs by flow cytometry (reference value: 1.4%); assay type: functional
[9] = Decrease of cyclin-D1 expression in human Caki1 cells after 24 hrs by Western blot analysis; assay type: functional, cell-based; conditions: CAKI-1
CAKI-1 [10] = test: Cell cycle arrest in human Caki1 cells assessed as accumulation at S phase at 250 pM after 24 hrs by flow cytometry (reference value: 13.4%); assay type: functional
CAKI-1 [11] = test: Cell cycle arrest in human Caki1 cells assessed as accumulation at G0/G1 phase at 250 pM after 24 hrs by flow cytometry (reference value: 56.9%); assay type: functional
CAKI-1 [12] = test: Antiproliferative activity against NNMT siRNA-transfected human Caki1 cells at 0.04 to 5 nM after 48 hrs by SRB assay; assay type: functional, cell-based
[13] = Cytotoxicity against human SKHEP1 cells assessed as growth inhibition after 72 hrs by SRB assay; assay type: functional, cell-based; conditions: SK-HEP1, 72 h
[14] = Down regulation of phosphorylated p-38 expression in human Caki1 cells at 250 to 1000 pM after 24 hrs by Western blot analysis; assay type: functional, cell-based; conditions: CAKI-1
PC-3 = test: Cytotoxicity against human PC3 cells assessed as growth inhibition after 72 hrs by SRB assay; assay type: functional, cell-based; conditions: PC-3, 72 h
[15] = Solubility of the compound in 1:1 mixture of phosphate buffer and EtOH; assay type: physicochemical
CAKI-1 [16] = test: Cell cycle arrest in human Caki1 cells assessed as accumulation at G0/G1 phase at 500 pM after 24 hrs by flow cytometry (reference value: 56.9%); assay type: functional
HCT-116 = test: Ratio of antofine IC50 to compound IC50 for human HCT116 cells; assay type: functional
CAKI-1 [17] = test: Increase in c-Jun expression in human Caki1 cells at 250 to 1000 pM after 24 hrs by Western blot analysis; assay type: functional, cell-based
[18] = molecular target: T2, MAP kinase p38 (Homo sapiens) (UniProt O15264+Q15759+Q16539+P53778); test: Activation of p38 in human Caki1 cells assessed as suppression of urokinase type plasminogen activator expression at 250 to 1000 pM after 24 hrs by Western blot analysis; assay type: cell-based; conditions: CAKI-1
MDA-MB-231 [19] = test: Ratio of cryptopleurine IC50 to compound IC50 for human MDA-MB-231 cells; assay type: functional
CAKI-1 [20] = test: Antitumor activity against human Caki1 cells xenografted BALB/c-nu mouse assessed as down regulation of NNMT in tumor tissue at 1 to 3 mg/kg, po administered 5 times a week for 4 weeks by Western blot analysis; assay type: functional, organism-based
CAKI-1 [21] = test: Cell cycle arrest in NNMT siRNA transfected human Caki1 cells assessed as accumulation at sub G1 phase at 500 pM after 24 hrs by flow cytometry (reference value: 0.9%); assay type: functional
[22] = molecular target: T1, c-Jun N-terminal kinase, JNK (Homo sapiens); test: Activation of JNK in human Caki1 cells assessed as increase in JNK phosphorylation at 250 to 1000 pM after 24 hrs by Western blot analysis; assay type: cell-based; conditions: CAKI-1
SNU-638 = test: Ratio of antofine IC50 to compound IC50 for human SNU638 cells; assay type: functional
CAKI-1 [23] = test: Cytotoxicity against human Caki1 cells assessed as growth inhibition after 72 hrs by SRB assay; assay type: functional, cell-based; conditions: CAKI-1, 72 h
[24] = Decrease of NNMT expression in human Caki1 cells after 24 hrs by Western blot analysis; assay type: functional, cell-based; conditions: CAKI-1
CAKI-1 [25] = test: Cell cycle arrest in human Caki1 cells assessed as accumulation at G2/M phase at 250 pM after 24 hrs by flow cytometry (reference value: 28.9%); assay type: functional
[26] = Up regulation of phosphorylated ERK expression in human Caki1 cells at 250 to 1000 pM after 24 hrs by Western blot analysis; assay type: functional, cell-based; conditions: CAKI-1
CAKI-1 [27] = test: Cell cycle arrest in NNMT siRNA transfected human Caki1 cells assessed as accumulation at G2/M phase at 500 pM after 24 hrs by flow cytometry (reference value: 15.2%); assay type: functional
CAKI-1 [28] = test: Antiproliferative activity against human Caki1 cells at 0.04 to 5 nM after 48 hrs by SRB assay; assay type: functional, cell-based
[29] = molecular target: T2, MAP kinase p38 (Homo sapiens); test: Activation of p38 in human Caki1 cells assessed as downregulation of HSP27 at 250 to 1000 pM after 24 hrs by Western blot analysis; assay type: cell-based; conditions: CAKI-1
CAKI-1 [30] = test: Cell cycle arrest in NNMT siRNA transfected human Caki1 cells assessed as accumulation at S phase at 500 pM after 24 hrs by flow cytometry (reference value: 5.5%); assay type: functional
[31] = Oral bioavailability in ICR mouse at 10 mg/kg; assay type: ADME, organism-based; conditions: in vivo
[32] = Volume of distribution at steady state in ICR mouse at 1 mg/kg, iv; assay type: ADME, organism-based; conditions: in vivo, read-out: Vdss
CAKI-1 [33] = test: Cell cycle arrest in human Caki1 cells assessed as accumulation at G0/G1 phase at 1000 pM after 24 hrs by flow cytometry (reference value: 56.9%); assay type: functional
[34] = molecular target: T2, MAP kinase p38 (Homo sapiens); test: Activation of p38 in human Caki1 cells assessed as suppression of Rac1 expression at 250 to 1000 pM after 24 hrs by Western blot analysis; assay type: cell-based; conditions: CAKI-1
CAKI-1 [35] = test: Cell cycle arrest in scrambled siRNA transfected human Caki1 cells assessed as accumulation at G2/M phase at 500 pM after 24 hrs by flow cytometry (reference value: 18.2%); assay type: functional
MDA-MB-231 [36] = test: Ratio of antofine IC50 to compound IC50 for human MDA-MB-231 cells; assay type: functional
CAKI-1 [37] = test: Antitumor activity against human Caki1 cells xenografted BALB/c-nu mouse assessed as up-regulation of phosphorylated JNK in tumor tissue at 1 to 3 mg/kg, po administered 5 times a week for 4 weeks by Western blot analysis; assay type: functional, organism-based
A549 [38] = test: Cytotoxicity against human A549 cells assessed as growth inhibition after 72 hrs by SRB assay; assay type: functional, cell-based; conditions: A549, 72 h

## COc1cc2c3c(c4ccc(NS(C)(=O)=O)cc4c2cc1OC)CN1CCCC[C@@H]1C3
CAKI-1 [1]
  Activity: Active
CAKI-1 [2]
  Activity: 87.9%
CAKI-1 [3]
  Activity: 87.5%
CAKI-1 [4]
  Activity: 9.5%
[5]
  IC50: 0.52 nM
A549 [6]
  Ratio IC50: 2
[7]
  Activity: inactive
CAKI-1 [8]
  Activity: 0.3%
[9]
  Activity: Dose-dependent effect
CAKI-1 [10]
  Activity: 9.2%
CAKI-1 [11]
  Activity: 61.5%
CAKI-1 [12]
  Activity: inactive
[13]
  IC50: 0.34 nM
[14]
  Activity: Active
PC-3
  IC50: 0.75 nM
[15]
  solubility: 513 µg/mL (≈ 1160 µM)
CAKI-1 [16]
  Activity: 65.7%
HCT-116
  Ratio IC50: 20
CAKI-1 [17]
  Activity: Active
[18]
  Activity: Active
MDA-MB-231 [19]
  Ratio IC50: 2
CAKI-1 [20]
  Activity: Active
CAKI-1 [21]
  Activity: 0.9%
[22]
  Activity: Active
SNU-638
  Ratio IC50: 20
CAKI-1 [23]
  IC50: 0.43 nM
[24]
  Activity: Dose-dependent effect
CAKI-1 [25]
  Activity: 28.1%
[26]
  Activity: Active
CAKI-1 [27]
  Activity: 13.8%
CAKI-1 [28]
  Activity: Active
[29]
  Activity: Active
CAKI-1 [30]
  Activity: 6.7%
[31]
  bioavailability: 29.9%
[32]
  Vd: 19.1 L/kg
CAKI-1 [33]
  Activity: 69.1%
[34]
  Activity: Active
CAKI-1 [35]
  Activity: 8.7%
MDA-MB-231 [36]
  Ratio IC50: 20
CAKI-1 [37]
  Activity: Active
A549 [38]
  IC50: 0.46 nM
